Source: patent US20080045582A1, “ENA-78 Gene Polymorphisms and Protein Concentrations as Diagnostic and Prognostic Tools” (priority 2006, published 2008)

How the values were obtained:
ENA-78 = test: IL-1beta-stimulated ENA-78 production from HUVECs, cytometric immunofluorescence; assay type: cell-based, human; conditions: for ENA-78 production reduced by, compared with IL-1beta-stimulated cells in the absence of AT: AT pre-treatment 2 h before IL-1beta
Experimental: Human umbilical vein endothelial cells (HUVECs) (Clonetics Cell Systems; Cambrex Bio Science Walkersville, Inc., Walkersville, USA) were cultured as previously described. Briefly, HUVECs between passes three and four were seeded at a density of 2.5×10^4 cells per cm^2 and cultured to 80% confluence with endothelial cell growth-supplemented medium (EGM-2-endothelial cell medium-2; Cambrex Bio Science Walkersville, Inc.). Once confluent, media was changed to serum free endothelial basal media (EBM-2-endothelial cell medium-2; Cambrex Bio Science Walkersville, Inc.) for 24 hours prior to treatment, in which EBM-2 media supplemented to a 2% FBS concentration was used. Treatments consisted of atorvastatin calcium (AT; LKT Laboratories Inc., St. […] All were dissolved in molecular grade water. All final DMSO concentrations were less then 0.1%. […] In experiments investigating the impact of AT on IL-1beta-stimulated ENA-78 production, HUVECs were pre-treated with AT followed by IL-1beta stimulation two hours later. […] In a separate set of experiments, cells were cultured with IL-1beta and AT in the presence or absence of mevalonate, FPP, and GGPP to determine whether AT inhibition of ENA-78 production was dependent on HMG-CoA reductase inhibition and subsequent downstream pathways. Cell culture supernates for all experiments were stored at -20° C. until analysis, which was performed within seven days. ENA-78 concentrations were measured and normalized to total protein content in cell culture supernates using cytometric immunofluorescence as previously described. Ribonucleic acid (RNA) was isolated using a commercial kit (RNeasy mini kit, Qiagen Inc., Valencia, USA). Complementary deoxyribonucleic acid (cDNA) conversion was performed by high capacity cDNA reverse transcription (Applied Biosystems, Foster City, USA) per protocol using roughly 2 μg of total RNA. RNA quality was assessed by absorbance (Nanodrop, Nanodrop Technologies, Wilmington, USA). Real-time reverse-transcription PCR (RT-PCR) was done using primer and probe sets for CXCL5 normalized to a housekeeping gene, glyceraldehyde-3-phosphate dehydrogenase (GAPDH; Taqman Gene Expression Assays, Applied Biosystems Inc.). […] PCR for both CXCL5 and GAPDH was performed at the same time using the following conditions: 95° C. for 2 minutes; 35 cycles of 95° C. for 30 seconds, 59° C. for 30 seconds, and 72° C. for 30 seconds; followed by 7 minutes of elongation at 72° C. Statistical differences in normalized protein concentrations and gene expression levels were determined by one way ANOVA and post-hoc Tukey analysis. […] An independent t-test was used to compare treatment differences at the same time points in the dose range analysis. […] Statistical analyses were performed with SPSS software, version 11.5 (SPSS Inc., Chicago, USA).

HUVECs = test: HUVEC viability, trypan blue cell staining; assay type: cell-based, human; conditions: 24 hours of treatment, any dose of AT from 1 uM to 50 uM, FIG. 13
Experimental: Human umbilical vein endothelial cells (HUVECs) (Clonetics Cell Systems; Cambrex Bio Science Walkersville, Inc., Walkersville, USA) were cultured as previously described. Briefly, HUVECs between passes three and four were seeded at a density of 2.5×10^4 cells per cm^2 and cultured to 80% confluence with endothelial cell growth-supplemented medium (EGM-2-endothelial cell medium-2; Cambrex Bio Science Walkersville, Inc.). Once confluent, media was changed to serum free endothelial basal media (EBM-2-endothelial cell medium-2; Cambrex Bio Science Walkersville, Inc.) for 24 hours prior to treatment, in which EBM-2 media supplemented to a 2% FBS concentration was used.
Treatments consisted of atorvastatin calcium (AT; LKT Laboratories Inc., St. Paul, USA) 1-50 μM dissolved in dimethyl sulfoxide (DMSO), IL-1beta, mevalonate, farnesyl pyrophosphate (FPP), and geranylgeranyl pyrophosphate (GGPP) were purchased from Sigma-Aldrich (St. Louis, Mo.), with concentrations of 2 ng/ml, 250 μM, 5 μM, and 5 μM used respectively. All were dissolved in molecular grade water. All final DMSO concentrations were less then 0.1%.
Cell viability was assessed by treating HUVECs with AT 1 μM, 5 μM, 10 μM, 25 μM, and 50 μM using trypan blue cell staining. […]

CC(C)c1c(C(=O)Nc2ccccc2)c(-c2ccccc2)c(-c2ccc(F)cc2)n1CC[C@@H](O)C[C@@H](O)CC(=O)O [atorvastatin]
ENA-78 production reduced by, compared with IL-1beta-stimulated cells in the absence of AT (ENA-78; 1st of the five AT dose groups (1, 5, 10, 25, 50 μM)): 38%
ENA-78 production reduced by, compared with IL-1beta-stimulated cells in the absence of AT (ENA-78; 2nd of the five AT dose groups (1, 5, 10, 25, 50 μM)): 70%
ENA-78 production reduced by, compared with IL-1beta-stimulated cells in the absence of AT (ENA-78; 3rd of the five AT dose groups (1, 5, 10, 25, 50 μM)): 78%
ENA-78 production reduced by, compared with IL-1beta-stimulated cells in the absence of AT (ENA-78; 4th of the five AT dose groups (1, 5, 10, 25, 50 μM)): 93%
ENA-78 production reduced by, compared with IL-1beta-stimulated cells in the absence of AT (ENA-78; 5th of the five AT dose groups (1, 5, 10, 25, 50 μM)): 99%
IL-1beta-stimulated ENA-78 production (ENA-78; AT at concentrations ≧25 uM): returned to baseline
IL-1beta-stimulated ENA-78 production (ENA-78; IL-1beta and AT 10 uM, FIG. 16): 1054 ± 349 pg/mg
time at which AT attenuation of ENA-78 production relative to IL-1beta was most pronounced (ENA-78; time course 0, 4, 12, 24, 48 hours, FIG. 15): 48 h
HUVEC viability compared with control (HUVECs): no significant differences
